Where a name gives a salt, the structure may show the parent alone.

The target of the first assay is ATM (Homo sapiens (Human), UniProt Q13315). The experiment in a line: ATM in Cell Western Assay (pKAP1 in etoposide-treated MCF-7 cells). The note with it: MCF-7 cells, etoposide 100 μM, 1 hr, pKAP1 readout. It counts as cell-based. As to the method: Assay of Compounds ATM and DNA-PK Inhibition
ATM, sequence (Q13315 whole entry): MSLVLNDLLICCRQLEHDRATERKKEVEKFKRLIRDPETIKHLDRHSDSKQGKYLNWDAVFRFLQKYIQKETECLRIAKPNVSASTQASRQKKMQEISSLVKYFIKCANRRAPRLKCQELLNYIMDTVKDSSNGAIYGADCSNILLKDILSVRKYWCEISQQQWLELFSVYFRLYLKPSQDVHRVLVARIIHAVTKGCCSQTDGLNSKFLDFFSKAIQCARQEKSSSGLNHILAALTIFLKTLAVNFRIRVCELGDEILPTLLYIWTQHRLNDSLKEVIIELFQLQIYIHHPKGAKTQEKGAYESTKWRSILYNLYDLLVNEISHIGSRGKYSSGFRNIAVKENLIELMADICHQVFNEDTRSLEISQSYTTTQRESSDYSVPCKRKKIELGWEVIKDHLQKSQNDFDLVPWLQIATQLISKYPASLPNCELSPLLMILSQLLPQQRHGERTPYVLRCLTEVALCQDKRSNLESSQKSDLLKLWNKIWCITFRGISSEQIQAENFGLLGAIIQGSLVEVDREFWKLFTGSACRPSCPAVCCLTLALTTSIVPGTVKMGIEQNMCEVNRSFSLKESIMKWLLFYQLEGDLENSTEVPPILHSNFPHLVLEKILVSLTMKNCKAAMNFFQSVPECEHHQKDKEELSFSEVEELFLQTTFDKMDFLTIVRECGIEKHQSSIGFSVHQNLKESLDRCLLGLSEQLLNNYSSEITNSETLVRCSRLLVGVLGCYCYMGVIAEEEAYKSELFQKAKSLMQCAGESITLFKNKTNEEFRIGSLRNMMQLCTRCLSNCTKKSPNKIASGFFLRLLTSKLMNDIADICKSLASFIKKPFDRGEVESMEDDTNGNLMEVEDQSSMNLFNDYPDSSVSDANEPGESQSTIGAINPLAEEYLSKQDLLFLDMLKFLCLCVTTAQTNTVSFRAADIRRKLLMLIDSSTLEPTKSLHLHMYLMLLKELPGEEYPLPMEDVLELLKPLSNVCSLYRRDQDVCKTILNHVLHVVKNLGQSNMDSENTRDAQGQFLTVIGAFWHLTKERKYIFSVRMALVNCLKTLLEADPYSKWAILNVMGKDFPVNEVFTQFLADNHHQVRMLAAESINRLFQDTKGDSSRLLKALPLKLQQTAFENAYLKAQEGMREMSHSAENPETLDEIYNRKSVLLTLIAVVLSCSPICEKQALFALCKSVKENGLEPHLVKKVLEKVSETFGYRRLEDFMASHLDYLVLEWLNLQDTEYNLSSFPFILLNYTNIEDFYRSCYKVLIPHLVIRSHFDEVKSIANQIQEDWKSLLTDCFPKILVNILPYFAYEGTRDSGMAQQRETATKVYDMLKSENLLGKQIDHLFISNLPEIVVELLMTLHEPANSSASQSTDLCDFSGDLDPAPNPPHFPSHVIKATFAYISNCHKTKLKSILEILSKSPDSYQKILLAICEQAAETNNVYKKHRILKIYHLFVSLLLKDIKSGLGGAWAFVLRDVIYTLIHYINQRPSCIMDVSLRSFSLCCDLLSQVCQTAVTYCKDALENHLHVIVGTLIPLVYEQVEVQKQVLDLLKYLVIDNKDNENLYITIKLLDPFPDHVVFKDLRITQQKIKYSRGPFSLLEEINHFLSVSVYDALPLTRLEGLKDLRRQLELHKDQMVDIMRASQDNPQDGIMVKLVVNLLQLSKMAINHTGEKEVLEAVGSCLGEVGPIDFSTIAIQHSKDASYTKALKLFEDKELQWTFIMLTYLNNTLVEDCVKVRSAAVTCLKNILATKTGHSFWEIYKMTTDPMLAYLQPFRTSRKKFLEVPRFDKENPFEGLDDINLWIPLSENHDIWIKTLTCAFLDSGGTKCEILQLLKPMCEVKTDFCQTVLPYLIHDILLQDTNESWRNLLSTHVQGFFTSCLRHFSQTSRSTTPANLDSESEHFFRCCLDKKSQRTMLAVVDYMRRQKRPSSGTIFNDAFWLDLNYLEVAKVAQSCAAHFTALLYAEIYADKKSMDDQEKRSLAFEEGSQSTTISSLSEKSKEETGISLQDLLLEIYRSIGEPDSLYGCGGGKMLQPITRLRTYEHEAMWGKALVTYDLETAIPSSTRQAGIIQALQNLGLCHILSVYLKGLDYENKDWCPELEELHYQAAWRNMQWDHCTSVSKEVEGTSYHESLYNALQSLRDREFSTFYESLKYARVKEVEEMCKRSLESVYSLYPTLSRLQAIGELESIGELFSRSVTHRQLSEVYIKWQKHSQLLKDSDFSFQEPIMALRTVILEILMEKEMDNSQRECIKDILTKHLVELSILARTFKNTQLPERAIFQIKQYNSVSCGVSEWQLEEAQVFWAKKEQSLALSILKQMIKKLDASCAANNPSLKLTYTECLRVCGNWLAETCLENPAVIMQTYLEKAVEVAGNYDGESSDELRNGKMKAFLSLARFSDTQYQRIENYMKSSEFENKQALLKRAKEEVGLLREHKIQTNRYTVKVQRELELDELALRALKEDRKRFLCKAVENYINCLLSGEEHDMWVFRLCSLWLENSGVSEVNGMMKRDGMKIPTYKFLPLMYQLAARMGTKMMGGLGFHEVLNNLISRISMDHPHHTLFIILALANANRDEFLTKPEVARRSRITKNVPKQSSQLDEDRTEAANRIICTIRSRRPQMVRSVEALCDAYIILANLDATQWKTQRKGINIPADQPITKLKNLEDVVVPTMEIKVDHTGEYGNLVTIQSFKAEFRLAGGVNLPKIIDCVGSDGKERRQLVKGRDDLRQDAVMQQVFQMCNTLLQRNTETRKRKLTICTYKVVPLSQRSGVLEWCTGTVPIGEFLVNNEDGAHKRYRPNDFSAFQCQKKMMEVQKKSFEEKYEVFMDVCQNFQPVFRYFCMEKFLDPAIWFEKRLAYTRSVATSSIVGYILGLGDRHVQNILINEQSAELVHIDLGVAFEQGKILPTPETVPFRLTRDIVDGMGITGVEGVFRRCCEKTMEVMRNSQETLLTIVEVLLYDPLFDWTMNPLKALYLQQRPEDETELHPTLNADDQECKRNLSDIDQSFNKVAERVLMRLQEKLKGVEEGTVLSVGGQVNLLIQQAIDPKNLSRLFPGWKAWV
ATM in Cell Western Assay:
Next day, add corresponding concentration of compounds using pin tool (Echo 550), the final top concentration is 1 μM, 3-fold series dilution, total 10 doses. Then add etoposide (Sigma, #E1383) to a final concentration of 100 μM. Incubate at 37° C. for 1 hr. Fix cells by adding 25 μL of fixing solution (8% paraformaldehyde) for 20 minutes at ambient temperature. Permeabilize cells for 5 washes with 1×PBS (phosphate buffered saline) containing 0.1% Triton X-100; each wash is for 5 minutes. […] The next day, wash the plate 5 times with 1×PBST (1×PBS containing 0.1% Tween-20). […] Wash the cells for 5 times with 1×PBST (1×PBS containing 0.1% Tween-20) at ambient temperature, using gentle shaking in the dark. After the last wash
remove wash solution, turn plate upside down onto a thin paper towel and centrifuge at 1000 rpm for 1 min to absorb all wash buffer. Clean the bottom of plate with moist lint free paper. Scan plate immediately using ODYSSEY CLx (LI-COR) for the best results.
Broadly, the IC50 is the point on the concentration scale where inhibition reaches its midpoint. `COc1ncc(-c2ccc3ncc4c(c3c2)C2(CC2)C(=O)N4Cc2cn[nH]c2)cc1NS(=O)(=O)c1ccccc1` [Example 11, N-(5-(3′-((1H-Pyrazol-4-yl)methyl)-2′-oxo-2′,3′-dihydrospiro[cyclopropane-1,1′-pyrrolo[2,3-c]quinolin]-8′-yl)-2-methoxypyridin-3-yl) benzenesulfonamide] returned an IC50 of over 100 nM.

The molecule `CN(C)c1ccc(-c2ncc(-c3ccc4ncc5c(c4c3)C3(CCC3)C(=O)N5C)cc2NS(C)(=O)=O)cn1` [Example 271, N-(6′-(Dimethylamino)-5-(3′-methyl-2′-oxo-2′,3′-dihydrospiro[cyclobutane-1,1′-pyrrolo[2,3-c]quinolin]-8′-yl)-[2,3′-bipyridin]-3-yl)methanesulfonamide] had an IC50 of 1 to 100 nM.

The same assay, now with this note: pKAP1 in etoposide-treated MCF-7 cells.
For the molecule `CC(C)NCCOc1ncc(-c2cc3c(cc2F)ncc2c3[C@]3(C[C@H](N(C)C)C3)C(=O)N2C)cc1NS(C)(=O)=O` [Example 465, cis-N-(5-(3-(Dimethylamino)-7′-fluoro-3′-methyl-2′-oxo-2′,3′-dihydrospiro[cyclobutane-1,1′-pyrrolo[2,3-c]quinolin]-8′-yl)-2-(2-(isopropylamino)ethoxy)pyridin-3-yl)methanesulfonamide], the IC50 was in the range of 1 to 100 nM. Same read-out and setting: to `CC(C)NCCOc1ncc(-c2cc3c(cc2F)ncc2c3[C@]3(C[C@@H](COc4ccccc4)C3)C(=O)N2C)cc1NS(C)(=O)=O` [Example 408, trans-N-(5-(7′-Fluoro-3′-methyl-2′-oxo-3-(phenoxymethyl)-2′,3′-dihydrospiro[cyclobulane-1,1′-pyrrolo[2,3-c]quinolin]-8′-yl)-2-(2-(isopropylamino)ethoxy)pyridin-3-yl)methanesulfonamide] belongs 1 to 100 nM; to `CN1C(=O)C2(CCC2)c2c1cnc1cc(F)c(-c3cnc(N4CC(N(C)C)C4)c(NS(=O)(=O)CC#N)c3)cc21` [Example 342, 1-Cyano-N-(2-(3-(dimethylamino)azetidin-1-yl)-5-(7′-fluoro-3′-methyl-2′-oxo-2′,3′-dihydrospiro [cyclobutane-1,1′-pyrrolo [2,3-c]quinolin]-8′-yl)pyridin-3-yl)methanesulfonamide hydrochloride], over 100 nM. Same read-out and setting: then `CC(C)NCCOc1ncc(-c2cc3c4c(cnc3cc2F)N(C)C(=O)C42CN(C[C@@H](O)CO)C2)cc1NS(C)(=O)=O` [Example 509, (R)-N-(5-(1-(2,3-Dihydroxypropyl)-7′-fluoro-3′-methyl-2′-oxo-2′,3′-dihydrospiro[azetidine-3,1′-pyrrolo[2,3-c]quinolin]-8′-yl)-2-(2-(isopropylamino)ethoxy)pyridin-3-yl)methanesulfonamide], with over 100 nM; and `CC(C)NCCOc1ncc(-c2cc3c4c(cnc3cc2F)N(C)C(=O)C42CN(CC(F)F)C2)cc1NS(C)(=O)=O` [Example 508, N-(5-(1-(2,2-Difluoroethyl)-7′-fluoro-3′-methyl-2′-oxo-2′,3′-dihydrospiro[azetidine-3,1′-pyrrolo[2,3-c]quinolin]-8′-yl)-2-(2-(isopropylamino)ethoxy)pyridin-3-yl)methanesulfonamide], with 1 to 100 nM. On the same count and under the same terms, to `CC(C)NCCOc1ncc(-c2cc3c4c(cnc3cc2F)N(C)C(=O)C42CN(C(=O)C(C)C)C2)cc1NS(C)(=O)=O` [Example 512, N-(5-(7′-Fluoro-1-isobutyryl-3′-methyl-2′-oxo-2′,3′-dihydrospiro[azetidine-3,1′-pyrrolo[2,3-c]quinolin]-8′-yl)-2-(2-(isopropylamino)ethoxy)pyridin-3-yl)methanesulfonamide] belongs over 100 nM.

Regarding `CC(C)NCCOc1ncc(-c2cc3c4c(cnc3cc2F)N(C)C(=O)C42CN(C3CCOCC3)C2)cc1NS(C)(=O)=O` [Example 500, N-(5-(7′-Fluoro-3′-methyl-2′-oxo-1-(tetrahydro-2H-pyran-4-yl)-2′,3′-dihydrospiro[azetidine-3,1′-pyrrolo[2,3-c]quinolin]-8′-yl)-2-(2-(isopropylamino)ethoxy)pyridin-3-yl)methanesulfonamide hydrochloride], the IC50 lay in the range of 1 to 100 nM.
